Data: ChEMBL document CHEMBL1909294, “Translating clinical findings into knowledge in drug safety evaluation--drug induced liver injury prediction system (DILIps)” (PLoS Comput Biol, 2011)

Legend:
Hepatotoxicity [1] = tested on: Hepatotoxicity;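 for HepSE cholecystitis: Cholecystitis-related hepatic side effect score drawn from the DILIps (drug-induced liver injury prediction) training data set; call rule not given here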;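 for HepSE cirrhosis: cirrhosis hepatic side effect score taken from the DILIps (drug-induced liver injury prediction) training set; call rule not given here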;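 for HepSE elevated liver function tests: hepatic side effect score for raised liver function tests, as recorded in the DILIps training set used for predicting drug-induced liver injury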;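 for HepSE hepatic necrosis: score of hepatic side effects for hepatic necrosis, drawn from the training data of DILIps, a prediction system for drug-induced liver injury; call rule not given here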;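 for HepSE hepatomegaly: hepatic side effect score for hepatomegaly, taken from the training set of the DILIps drug-induced liver injury prediction system; call rule not given here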; for HepSE liver disease: call rule not given here;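 for HepSE liver function tests abnormal: hepatic side effect score taken from the DILIps (drug-induced liver injury prediction system) training data, here covering abnormal liver function test findings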
Hepatotoxicity [2] = tested on: Hepatotoxicity; remark: listed apart in the source;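 for HepSE cholecystitis: Cholecystitis-related hepatic side effect score drawn from the DILIps (drug-induced liver injury prediction) training data set; call rule not given here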;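 for HepSE cirrhosis: cirrhosis hepatic side effect score taken from the DILIps (drug-induced liver injury prediction) training set; call rule not given here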;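 for HepSE hepatic necrosis: score of hepatic side effects for hepatic necrosis, drawn from the training data of DILIps, a prediction system for drug-induced liver injury; call rule not given here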;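 for HepSE hepatomegaly: hepatic side effect score for hepatomegaly, taken from the training set of the DILIps drug-induced liver injury prediction system; call rule not given here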; for HepSE liver disease: call rule not given here;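 for HepSE liver function tests abnormal: hepatic side effect score taken from the DILIps (drug-induced liver injury prediction system) training data, here covering abnormal liver function test findings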
Hepatotoxicity [3] = tested on: Hepatotoxicity; remark: listed apart in the source;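 for HepSE cholecystitis: Cholecystitis-related hepatic side effect score drawn from the DILIps (drug-induced liver injury prediction) training data set; call rule not given here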;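 for HepSE cirrhosis: cirrhosis hepatic side effect score taken from the DILIps (drug-induced liver injury prediction) training set; call rule not given here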;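 for HepSE hepatic necrosis: score of hepatic side effects for hepatic necrosis, drawn from the training data of DILIps, a prediction system for drug-induced liver injury; call rule not given here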;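 for HepSE hepatomegaly: hepatic side effect score for hepatomegaly, taken from the training set of the DILIps drug-induced liver injury prediction system; call rule not given here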; for HepSE liver disease: call rule not given here;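 for HepSE liver function tests abnormal: hepatic side effect score taken from the DILIps (drug-induced liver injury prediction system) training data, here covering abnormal liver function test findings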
Hepatotoxicity [4] = tested on: Hepatotoxicity; remark: listed apart in the source;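 for HepSE cholecystitis: Cholecystitis-related hepatic side effect score drawn from the DILIps (drug-induced liver injury prediction) training data set; call rule not given here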;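 for HepSE cirrhosis: cirrhosis hepatic side effect score taken from the DILIps (drug-induced liver injury prediction) training set; call rule not given here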;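 for HepSE hepatic necrosis: score of hepatic side effects for hepatic necrosis, drawn from the training data of DILIps, a prediction system for drug-induced liver injury; call rule not given here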;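 for HepSE hepatomegaly: hepatic side effect score for hepatomegaly, taken from the training set of the DILIps drug-induced liver injury prediction system; call rule not given here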; for HepSE liver disease: call rule not given here;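 for HepSE liver function tests abnormal: hepatic side effect score taken from the DILIps (drug-induced liver injury prediction system) training data, here covering abnormal liver function test findings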
Hepatotoxicity [5] = tested on: Hepatotoxicity; remark: listed apart in the source; for HepSE liver disease: call rule not given here
Hepatotoxicity [6] = tested on: Hepatotoxicity; remark: listed apart in the source; for HepSE liver disease: call rule not given here
Hepatotoxicity [7] = tested on: Hepatotoxicity; remark: listed apart in the source
Hepatotoxicity [8] = tested on: Hepatotoxicity; remark: listed apart in the source
Hepatotoxicity [9] = tested on: Hepatotoxicity; remark: listed apart in the source
Hepatotoxicity [10] = tested on: Hepatotoxicity; remark: listed apart in the source
Hepatotoxicity [11] = tested on: Hepatotoxicity; remark: listed apart in the source
Hepatotoxicity [12] = tested on: Hepatotoxicity; remark: listed apart in the source
Hepatotoxicity [13] = tested on: Hepatotoxicity; remark: listed apart in the source
Hepatotoxicity [14] = tested on: Hepatotoxicity; remark: listed apart in the source

Compound	HepSE_cholecystitis (Hepatotoxicity [1])	HepSE_liver function tests abnormal (Hepatotoxicity [2])	HepSE_cirrhosis (Hepatotoxicity [3])	HepSE_hepatic necrosis (Hepatotoxicity [4])	HepSE_hepatomegaly (Hepatotoxicity [5])	HepSE_liver disease (Hepatotoxicity [6])	HepSE_hepatitis (Hepatotoxicity [7])	HepSE_elevated liver function tests (Hepatotoxicity [8])	HepSE_jaundice (Hepatotoxicity [9])	HepSE_bilirubinemia (Hepatotoxicity [10])	HepSE_liver fatty (Hepatotoxicity [11])	HepSE_hepatic failure (Hepatotoxicity [12])	HepSE_Combined Scores (Hepatotoxicity [13])	HepSE_cholelithiasis (Hepatotoxicity [14])	also measured
CCOC(=O)C1(c2ccccc2)CCN(C)CC1 [MEPERIDINE]	0	0	0	0	0	0	0	0	0	0	0	0	0	0	
CN(C)S(=O)(=O)c1ccc2c(c1)N(CCCN1CCC(CCO)CC1)c1ccccc1S2 [PIPOTIAZINE]	0	0	0	0	0	0	0	0	1	0	0	0	1	0	
CCC(C)n1ncn(-c2ccc(N3CCN(c4ccc(OCC5COC(Cn6cncn6)(c6ccc(Cl)cc6Cl)O5)cc4)CC3)cc2)c1=O (configuration not stated) [ITRACONAZOLE]	0	1	1	0	0	1	1	0	1	1	0	1	7	0	
CC(O)(CS(=O)(=O)c1ccc(F)cc1)C(=O)Nc1ccc(C#N)c(C(F)(F)F)c1 (configuration not stated) [BICALUTAMIDE]	0	1	0	0	0	0	0	0	1	0	0	1	3	0	
Cc1ccccc1N1C(=O)c2cc(S(N)(=O)=O)c(Cl)cc2NC1C (configuration not stated) [METOLAZONE]	0	0	0	0	0	0	1	0	1	0	0	0	2	0	
CC(C)C[C@H](NC(=O)[C@H](Cc1ccccc1)NC(=O)c1cnccn1)B(O)O [BORTEZOMIB]															HepSE_cholecystitis (Hepatotoxicity [1]; Liver): 0; HepSE_liver function tests abnormal (Hepatotoxicity [2]; Liver): 0; HepSE_cirrhosis (Hepatotoxicity [3]; Liver): 0; HepSE_hepatic necrosis (Hepatotoxicity [4]; Liver): 0; HepSE_hepatomegaly (Hepatotoxicity [5]; Liver): 0; HepSE_liver disease (Hepatotoxicity [6]; Liver): 0; HepSE_hepatitis (Hepatotoxicity [7]; Liver): 1; HepSE_elevated liver function tests (Hepatotoxicity [8]; Liver): 0; HepSE_jaundice (Hepatotoxicity [9]; Liver): 0; HepSE_bilirubinemia (Hepatotoxicity [10]; Liver): 1; HepSE_liver fatty (Hepatotoxicity [11]; Liver): 0; HepSE_hepatic failure (Hepatotoxicity [12]; Liver): 1; HepSE_Combined Scores (Hepatotoxicity [13]; Liver): 3; HepSE_cholelithiasis (Hepatotoxicity [14]; Liver): 0
CCCc1nc2c(C)cc(-c3nc4ccccc4n3C)cc2n1Cc1ccc(-c2ccccc2C(=O)O)cc1	0	0	0	0	0	1	0	0	0	0	0	0	1	0	
NC12CC3CC(CC(C3)C1)C2 [AMANTADINE]	0	0	0	0	0	0	0	0	0	0	0	0	0	0	
Nc1nc2c(c(=O)[nH]1)N(C=O)C(CNc1ccc(C(=O)N[C@@H](CCC(=O)O)C(=O)O)cc1)CN2 (some centres not stated) [LEUCOVORIN]	0	0	0	0	0	0	0	0	0	0	0	0	0	0	
O=[N+]([O-])O[C@H]1CO[C@H]2[C@@H]1OC[C@H]2O[N+](=O)[O-] [ISOSORBIDE DINITRATE]	0	0	0	0	0	0	0	0	0	0	0	0	0	0	
MANGAFODIPIR	0	0	0	0	0	0	0	0	0	0	0	0	0	0	
O=C1CN=C(c2ccccn2)c2cc(Br)ccc2N1 [BROMAZEPAM]	0	0	0	0	0	0	0	0	0	0	0	0	0	0	
O=C1Cc2cc(CCN3CCN(c4nsc5ccccc45)CC3)c(Cl)cc2N1 [ZIPRASIDONE]	0	0	0	0	1	0	1	0	1	0	1	0	4	0	
